The values that follow come from patent publication US12624025B2, “Inhibitors of SARM1” (DISARM THERAPEUTICS, INC., priority 2019, dated 2026).

Some results are limits rather than exact numbers.

For the first experiment, the target named is T1, SARM1 SAM-TIR (Homo sapiens, UniProt Q6SZW1).
T1 construct: a fragment of the SARM1 molecule encompassing the SAM and TIR domains; tandem Strep-tag II (WSHPQFEK twice, with Gly/Ser linkers); made in house; host or cells: NRK1-HEK293T cells (transient transfection; crude lysate supernatant used, not purified)
T1 sequence (Q6SZW1 409-724 limits assumed): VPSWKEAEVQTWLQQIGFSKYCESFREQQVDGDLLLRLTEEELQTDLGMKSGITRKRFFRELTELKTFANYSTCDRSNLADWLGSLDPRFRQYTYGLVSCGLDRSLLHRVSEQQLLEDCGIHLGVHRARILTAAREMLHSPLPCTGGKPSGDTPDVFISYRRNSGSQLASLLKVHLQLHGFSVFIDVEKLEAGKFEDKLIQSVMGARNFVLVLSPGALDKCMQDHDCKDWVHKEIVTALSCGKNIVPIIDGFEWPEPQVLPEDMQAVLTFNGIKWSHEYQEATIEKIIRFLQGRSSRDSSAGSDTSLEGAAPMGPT
As to the kind of experiment: SAM-TIR SARM1 IC50 assay (NADase activity, NAD+ cleavage, RapidFire MS readout). It counts as biochemical.
Conditions: not given
As to the method: This Example describes an assay of SAM-TIR NADase activity and use of this assay to measure the efficacy of compounds of Formula I to block SARM1 mediated NAD+ cleavage. This assay is optimized in such a way as to characterize the efficacy of the compounds in Formula I to inhibit SARM1 activity and to calculate an IC50 value for each compound. This assay makes use of a fragment of the SARM1 molecule encompassing the SAM and TIR domains.
NRK1-HEK293T cells were seeded onto 150 cm^2 plates at 20×10^6 cells per plate. The next day, the cells were transfected with 15 μg FCIV-SST (SAM-TIR expression plasmid, SEQ ID NO: 1) using X-TREMEGENE™ 9 DNA Transfection Reagent (Roche product #06365787001).
The cultures were supplemented with 1 mM NR at time of transfection to minimize toxicity from SAM-TIR overexpression. Forty-eight hours after transfection, cells were harvested, pelleted by centrifugation at 1,000 rpm (Sorvall ST 16R centrifuge, Thermo Fisher), and washed once with cold PBS (0.01 M phosphate buffered saline NaCl 0.138 M; KCl 0.0027 M; pH 7.4). The cells were resuspended in PBS with protease inhibitors (cOmplete™ protease inhibitor cocktail, Roche product #11873580001) and cell lysates were prepared by sonication (Branson Sonifer 450, output=3, 20 episodes of stroke). The lysates were centrifuged (12,000×g for 10 min at 4° C.) to remove cell debris and the supernatants (containing SARM1 SAM-TIR protein) were stored at −80° C. for later use in the in vitro SARM1 SAM-TIR NADase assay (see below). Protein concentration was determined by the Bicinchoninic (BCA) method and used to normalize lysate concentrations.
The enzymatic assay was performed in a 384-well polypropylene plate in Dulbecco's PBS buffer in a final assay volume of 20 μL. SAM-TIR lysate with a final concentration of 5 μg/mL was pre-incubated with the respective compound at 1% DMSO final assay concentration over 2 h at room temperature. The reaction was initiated by addition of 5 μM final assay concentration of NAD+ as substrate. After a 2 hr room temperature incubation, the reaction was terminated with 40 μL of stop solution of 7.5% trichloroactetic acid in acetonitrile. The NAD+ and ADPR concentrations were analyzed by a RapidFire High Throughput Mass Spectrometry System (Agilent Technologies, Santa Clara, CA) using an API4000 triple quadrupole mass spectrometer (AB Sciex Framingham, Mass.).
In general, IC50 refers to the concentration at which inhibition is half-maximal. Consider `CS(=O)(=O)N1C2CCC1C(n1sc(Nc3c(Cl)ccc4ncccc34)c(C#N)c1=O)C2` (centres unmarked) [Example 26], for which the IC50 was < 1000 nM.

The experiment is the same for the next values; noted with them: SAM-TIR lysate 5 μg/mL, 2 h pre-incubation with compound, 5 μM NAD+, 2 hr room temperature; read-out: SARM1 IC50.
On to `CN1CCC(n2sc(Nc3c(Cl)ccc4ncccc34)c(C#N)c2=O)CC1` [Example 1], for which the IC50 was < 1000 nM.

Consider `CC(=O)N1CCC(n2sc(Nc3ccccc3C(F)(F)F)c(C#N)c2=O)CC1` [Example 2], for which the IC50 was < 1000 nM.

`C[C@@H]1CNC[C@@H]1n1sc(Nc2ccccc2C(F)(F)F)c(C#N)c1=O` [Example 3]: the IC50 is < 1000 nM.

In the case of `N#Cc1c(Nc2ccccc2C(F)(F)F)sn(-c2ccccc2)c1=O` [Example 4], the IC50 is < 1000 nM.

Regarding `N#Cc1c(Nc2ccccc2C(F)(F)F)sn([C@H]2CCNC2)c1=O` [Example 5], the concentration for half-maximal inhibition (IC50) is < 1000 nM.

On to `N#Cc1c(Nc2ccccc2C(F)(F)F)sn(-c2cccc(C(N)=O)c2)c1=O` [Example 6], for which the IC50 is < 1000 nM.

Take `CS(=O)(=O)N1CC[C@H](n2sc(Nc3ccccc3C(F)(F)F)c(C#N)c2=O)C1` [Example 7]: the IC50 was < 1000 nM.

For the compound `N#Cc1c(Nc2ccccc2C(F)(F)F)sn(-c2cccc3[nH]ncc23)c1=O` [Example 8], the IC50 is < 1000 nM.

Regarding `N#Cc1c(Nc2ccccc2C(F)(F)F)sn([C@H]2CCN(C(N)=O)C2)c1=O` [Example 9], the IC50 is < 1000 nM.

Consider `N#Cc1c(Nc2ccccc2C(F)(F)F)sn([C@@H]2CCN(C(N)=O)C2)c1=O` [Example 10], for which the IC50 is < 1000 nM.

As to `N#Cc1c(Nc2ccccc2C(F)(F)F)sn(-c2ccc3[nH]ncc3c2)c1=O` [Example 11], the IC50 is < 1000 nM.

Regarding `CS(=O)(=O)N1CC[C@@H](n2sc(Nc3ccccc3C(F)(F)F)c(C#N)c2=O)C1` [Example 12], the IC50 was < 1000 nM.

For `N#Cc1c(Nc2c(Cl)ccc3ncccc23)sn(-c2ccn[nH]2)c1=O` [Example 13], the IC50 was < 1000 nM.

In the case of `N#Cc1c(Nc2ccccc2C(F)(F)F)sn(C2CCN(C(N)=O)CC2)c1=O` [Example 14], the IC50 was < 1000 nM.

Take `CC(=O)N1CC[C@@H](n2sc(Nc3ccccc3C(F)(F)F)c(C#N)c2=O)C1` [Example 15]: the IC50 is < 1000 nM.

Take `N#Cc1c(Nc2c(Cl)ccc3ncccc23)sn(C2CCNCC2)c1=O` [Example 16]: the IC50 is < 1000 nM.

`N#Cc1c(Nc2ccccc2C(F)(F)F)sn(-c2cccc(-c3cnco3)c2)c1=O` [Example 18]: the IC50 is < 1000 nM.

On to `N#Cc1c(Nc2ccccc2C(F)(F)F)sn(C2CCNCC2)c1=O` [Example 19], for which the half-inhibitory concentration (IC50) was < 1000 nM.

Consider `CS(=O)(=O)N1CCC(n2sc(Nc3ccccc3C(F)(F)F)c(C#N)c2=O)CC1` [Example 20], for which the IC50 was < 1000 nM.

`N#Cc1c(Nc2ccccc2C(F)(F)F)sn([C@@H]2CCNC2)c1=O` [Example 21]: the IC50 is < 1000 nM.

For `CS(=O)(=O)N1CC[C@H](n2sc(Nc3c(Cl)ccc4ncccc34)c(C#N)c2=O)C1` [Example 22], the IC50 was < 1000 nM.

As for `CC(=O)N1CC[C@H](n2sc(Nc3ccccc3C(F)(F)F)c(C#N)c2=O)C1` [Example 23], the IC50 is < 1000 nM.

Take `N#Cc1c(Nc2ccccc2C(F)(F)F)sn(C2CNCC23CC3)c1=O` (centres unmarked) [Example 24]: the IC50 is < 1000 nM.

As for `N#Cc1c(Nc2cccc3ncccc23)sn(-c2ccc3c(c2)OCCO3)c1=O` [Example 25], the IC50 was < 1000 nM.

As to `N#Cc1c(Nc2ccccc2C(F)(F)F)sn([C@@H]2CNCC23CC3)c1=O` [Example 27], the IC50 was < 1000 nM.

On to `C[C@@H]1CN(S(C)(=O)=O)C[C@H]1n1sc(Nc2c(Cl)ccc3ncccc23)c(C#N)c1=O` [Example 28], for which the IC50 is < 1000 nM.

Regarding `CC(C)(C)OC(=O)n1ncc2cc(-n3sc(Nc4ccccc4C(F)(F)F)c(C#N)c3=O)ccc21` [Example 29], the IC50 is < 1000 nM.

As for `CS(=O)(=O)N1CC[C@@H](n2sc(Nc3c(Cl)ccc4ncccc34)c(C#N)c2=O)C1` [Example 30], the IC50 was < 1000 nM.

With `N#Cc1c(Nc2ccccc2C(F)(F)F)sn(C2CCOCC2)c1=O` [Example 31], the IC50 is < 1000 nM.

With `N#Cc1c(Nc2c(Cl)ccc3ncccc23)sn([C@@H]2CCNC2)c1=O` [Example 32], the IC50 was < 1000 nM.

As for `CN1CC[C@@H](n2sc(Nc3c(Cl)ccc4ncccc34)c(C#N)c2=O)C1` [Example 33], the IC50 was < 1000 nM.

As for `CS(=O)(=O)N1CC2CCC(C1)C2n1sc(Nc2c(Cl)ccc3ncccc23)c(C#N)c1=O` (centres unmarked) [Example 34], the IC50 was < 1000 nM.

In the case of `COCCN(C)C(=O)c1c(Nc2ccccc2C(F)(F)F)sn(-c2ccccc2)c1=O` [Example 35], the IC50 was < 1000 nM.

Consider `CN1C[C@H](n2sc(Nc3c(Cl)ccc4ncccc34)c(C#N)c2=O)C2(CC2)C1` [Example 36], for which the IC50 is < 1000 nM.

Consider `N#Cc1c(Nc2c(Cl)ccc3ncccc23)sn(C2C3CCC2CNC3)c1=O` (centres unmarked) [Example 37], for which the half-inhibitory concentration (IC50) is < 1000 nM.

Regarding `O=C(c1c(Nc2c(Cl)cccc2Cl)sn(-c2ccccc2)c1=O)N1CCOCC1` [Example 38], the IC50 is < 1000 nM.

On to `O=C(c1c(Nc2ccccc2C(F)(F)F)sn(-c2ccccc2)c1=O)N1CCOCC1` [Example 39], for which the IC50 is < 1000 nM.

Consider `CN1C[C@@H](n2sc(Nc3c(Cl)ccc4ncccc34)c(C#N)c2=O)C2(CC2)C1` [Example 41], for which the IC50 was < 1000 nM.

On to `CS(=O)(=O)N1CC2CCC1C2n1sc(Nc2c(Cl)ccc3ncccc23)c(C#N)c1=O` (centres unmarked) [Example 42], for which the IC50 was < 1000 nM.

With `C[C@H]1CNCC[C@H]1n1sc(Nc2c(Cl)ccc3ncccc23)c(C#N)c1=O` [Example 43], the IC50 was < 1000 nM.

In the case of `C[C@@H]1CNC[C@H]1n1sc(Nc2c(Cl)ccc3ncccc23)c(C#N)c1=O` [Example 44], the IC50 was < 1000 nM.

Consider `COc1cccc(OC)c1Nc1sn([C@@H]2CCNC2)c(=O)c1C(=O)N1CCOCC1` [Example 46], for which the IC50 is < 1000 nM.

As for `Cc1cnn(C)c1-n1sc(Nc2c(Cl)ccc3ncccc23)c(C#N)c1=O` [Example 47], the IC50 was in the range of 1000 to 5000 nM.

Consider `N#Cc1c(Nc2c(Cl)ccc3ncccc23)sn([C@H]2CCNC2)c1=O` [Example 48], for which the IC50 was > 5000 nM.

Regarding `CN(c1ccccc1C(F)(F)F)c1sn([C@@H]2CNCC23CC3)c(=O)c1C#N` [Example 49], the IC50 is > 5000 nM.

As for `N#Cc1c(Nc2c(Cl)cccc2Cl)sn(-c2ccc(-n3cccn3)cc2)c1=O` [Example 50], the IC50 was < 1000 nM.

`N#Cc1c(Nc2ccccc2C(F)(F)F)sn(-c2ccc(-n3cccn3)cc2)c1=O` [Example 51]: the IC50 was < 1000 nM.

As to `N#Cc1c(Nc2ccccc2C(F)(F)F)sn(-c2ccc3c(c2)OCCO3)c1=O` [Example 52], the IC50 was < 1000 nM.

Consider `N#Cc1c(Nc2ccccc2C(F)(F)F)sn(-c2ccc3cn[nH]c3c2)c1=O` [Example 53], for which the 50% inhibitory concentration (IC50) is < 1000 nM.
